# pIC50: −log10 of the molar value. The source made the active and inactive calls.
# Legend:
# [1] = target: T1, Voltage-dependent T-type calcium channel subunit alpha-1G (Homo sapiens, UniProt O43497); test: Inhibition of Cav3.1 channel (unknown origin) assessed as reduction in peak currents at 10 uM by whole cell patch-clamp method
# [2] = target: T1, Voltage-dependent T-type calcium channel subunit alpha-1G; test: Inhibition of Cav3.1 channel (unknown origin) assessed as reduction in peak currents by whole cell patch-clamp method
# [3] = target: T2, Voltage-dependent N-type calcium channel subunit alpha-1B (Homo sapiens, UniProt Q00975); test: Inhibition of Cav2.2 channel (unknown origin) assessed as reduction in peak currents at 10 uM by whole cell patch-clamp method
# Target sequence in this assay (Q00975 whole entry, looked up): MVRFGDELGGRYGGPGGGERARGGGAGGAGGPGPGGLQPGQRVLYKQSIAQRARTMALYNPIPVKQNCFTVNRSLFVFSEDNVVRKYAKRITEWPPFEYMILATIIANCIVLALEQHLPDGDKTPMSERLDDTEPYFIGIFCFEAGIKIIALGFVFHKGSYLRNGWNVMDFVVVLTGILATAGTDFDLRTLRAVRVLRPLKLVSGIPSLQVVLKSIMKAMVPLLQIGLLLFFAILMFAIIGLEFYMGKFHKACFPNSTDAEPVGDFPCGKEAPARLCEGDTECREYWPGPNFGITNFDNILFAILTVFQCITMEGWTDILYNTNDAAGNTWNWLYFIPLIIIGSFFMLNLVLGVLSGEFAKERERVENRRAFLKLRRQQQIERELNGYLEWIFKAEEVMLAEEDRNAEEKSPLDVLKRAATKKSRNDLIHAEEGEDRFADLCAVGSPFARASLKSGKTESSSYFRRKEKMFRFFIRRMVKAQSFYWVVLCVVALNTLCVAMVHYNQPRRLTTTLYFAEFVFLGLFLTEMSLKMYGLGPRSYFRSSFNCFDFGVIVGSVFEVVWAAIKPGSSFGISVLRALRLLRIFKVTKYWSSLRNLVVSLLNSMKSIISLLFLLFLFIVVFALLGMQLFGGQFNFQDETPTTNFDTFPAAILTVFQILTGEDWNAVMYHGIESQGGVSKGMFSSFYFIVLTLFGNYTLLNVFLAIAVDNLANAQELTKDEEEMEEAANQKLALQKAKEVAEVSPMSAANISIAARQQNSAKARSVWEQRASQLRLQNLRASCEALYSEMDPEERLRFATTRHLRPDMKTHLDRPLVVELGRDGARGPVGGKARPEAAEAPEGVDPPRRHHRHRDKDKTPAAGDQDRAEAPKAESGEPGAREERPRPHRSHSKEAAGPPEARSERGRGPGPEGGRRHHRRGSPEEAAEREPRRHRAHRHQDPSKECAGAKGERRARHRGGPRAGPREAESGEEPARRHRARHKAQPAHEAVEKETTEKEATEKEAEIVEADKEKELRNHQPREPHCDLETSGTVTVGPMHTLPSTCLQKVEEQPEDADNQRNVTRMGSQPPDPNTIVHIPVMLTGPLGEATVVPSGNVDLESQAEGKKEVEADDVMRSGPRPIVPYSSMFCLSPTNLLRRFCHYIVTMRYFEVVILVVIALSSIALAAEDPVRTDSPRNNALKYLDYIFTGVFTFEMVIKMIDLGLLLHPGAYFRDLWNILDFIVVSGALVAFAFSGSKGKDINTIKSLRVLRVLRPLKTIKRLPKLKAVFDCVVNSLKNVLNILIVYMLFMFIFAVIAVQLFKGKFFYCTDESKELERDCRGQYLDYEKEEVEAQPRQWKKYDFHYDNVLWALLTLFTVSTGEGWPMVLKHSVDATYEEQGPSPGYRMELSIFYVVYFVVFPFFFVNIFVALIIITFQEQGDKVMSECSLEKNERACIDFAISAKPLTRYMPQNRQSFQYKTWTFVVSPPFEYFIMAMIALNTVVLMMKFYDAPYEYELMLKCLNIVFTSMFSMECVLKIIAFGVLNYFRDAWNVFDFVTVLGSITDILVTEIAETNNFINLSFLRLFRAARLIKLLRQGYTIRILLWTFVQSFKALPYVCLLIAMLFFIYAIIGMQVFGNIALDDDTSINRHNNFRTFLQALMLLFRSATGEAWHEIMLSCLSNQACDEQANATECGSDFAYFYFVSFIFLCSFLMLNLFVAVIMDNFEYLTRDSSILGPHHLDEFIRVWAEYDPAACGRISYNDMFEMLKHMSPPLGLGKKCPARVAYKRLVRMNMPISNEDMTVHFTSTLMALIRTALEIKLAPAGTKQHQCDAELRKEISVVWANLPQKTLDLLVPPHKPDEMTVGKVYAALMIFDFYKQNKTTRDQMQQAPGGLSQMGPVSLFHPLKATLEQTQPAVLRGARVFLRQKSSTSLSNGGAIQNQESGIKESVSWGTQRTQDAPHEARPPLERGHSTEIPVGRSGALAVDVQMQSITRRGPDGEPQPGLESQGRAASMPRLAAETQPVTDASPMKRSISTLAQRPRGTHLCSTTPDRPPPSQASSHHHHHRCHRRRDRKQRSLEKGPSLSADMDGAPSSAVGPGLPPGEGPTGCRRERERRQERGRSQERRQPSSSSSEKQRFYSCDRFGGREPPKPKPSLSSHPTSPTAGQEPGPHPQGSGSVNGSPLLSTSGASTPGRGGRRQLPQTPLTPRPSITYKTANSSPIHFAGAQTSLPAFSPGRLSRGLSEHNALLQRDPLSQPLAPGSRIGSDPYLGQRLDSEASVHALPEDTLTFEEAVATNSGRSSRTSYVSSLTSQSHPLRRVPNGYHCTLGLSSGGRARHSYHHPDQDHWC
# [4] = target: T2, Voltage-dependent N-type calcium channel subunit alpha-1B; test: Inhibition of Cav2.2 channel (unknown origin) assessed as reduction in peak currents by whole cell patch-clamp method
# Target sequence in this assay (Q00975 whole entry): as the sequence (Q00975 whole entry, looked up) above
# [5] = test system: Rattus norvegicus; test: Analgesic activity in Sprague-Dawley rat model of spinal cord injury-induced neuropathic pain assessed as reduction in mechanical allodynia by measuring paw withdrawal threshold at 50 ug dosed intrathecally measured after 30 mins (reference value: 2.8 +/- 0.4 g); type: functional
# [6] = test system: Rattus norvegicus; test: Analgesic activity in Sprague-Dawley rat model of spinal cord injury-induced neuropathic pain assessed as reduction in mechanical allodynia by measuring paw withdrawal threshold at 100 ug dosed intrathecally measured after 30 mins (reference value: 2.8 +/- 0.4 g); type: functional
# [7] = test system: Rattus norvegicus; test: Analgesic activity in Sprague-Dawley rat model of spinal cord injury-induced neuropathic pain assessed as reduction in mechanical allodynia by measuring paw withdrawal threshold at 10 ug dosed intrathecally measured after 30 mins (reference value: 2.8 +/- 0.4 g); type: functional
# [8] = test system: Rattus norvegicus; test: Analgesic activity in Sprague-Dawley rat model of spinal cord injury-induced neuropathic pain assessed as reduction in thermal hyperalgesia by measuring paw withdrawal latency time at 50 ug dosed intrathecally measured after 30 mins (reference value: […]); type: functional
# [9] = test system: Rattus norvegicus; test: Analgesic activity in Sprague-Dawley rat model of spinal cord injury-induced neuropathic pain assessed as reduction in thermal hyperalgesia by measuring paw withdrawal latency time at 100 ug dosed intrathecally measured after 30 mins (reference value: […]); type: functional
# [10] = test system: Rattus norvegicus; test: Analgesic activity in Sprague-Dawley rat model of spinal cord injury-induced neuropathic pain assessed as reduction in thermal hyperalgesia by measuring paw withdrawal latency time at 10 ug dosed intrathecally measured after 30 mins (reference value: […]); type: functional
# [11] = test system: Rattus norvegicus; test: Effect on hind limb locomotion in Sprague-Dawley rat model of spinal cord injury-induced neuropathic pain assessed as Basso-Beattie-Bresnahan scores at 10 to 100 ug dosed via intrathecal route; type: ADME, organism-based, Hindlimb; conditions: in vivo, icv_or_intrathecal
# T1 sequence (O43497 whole entry): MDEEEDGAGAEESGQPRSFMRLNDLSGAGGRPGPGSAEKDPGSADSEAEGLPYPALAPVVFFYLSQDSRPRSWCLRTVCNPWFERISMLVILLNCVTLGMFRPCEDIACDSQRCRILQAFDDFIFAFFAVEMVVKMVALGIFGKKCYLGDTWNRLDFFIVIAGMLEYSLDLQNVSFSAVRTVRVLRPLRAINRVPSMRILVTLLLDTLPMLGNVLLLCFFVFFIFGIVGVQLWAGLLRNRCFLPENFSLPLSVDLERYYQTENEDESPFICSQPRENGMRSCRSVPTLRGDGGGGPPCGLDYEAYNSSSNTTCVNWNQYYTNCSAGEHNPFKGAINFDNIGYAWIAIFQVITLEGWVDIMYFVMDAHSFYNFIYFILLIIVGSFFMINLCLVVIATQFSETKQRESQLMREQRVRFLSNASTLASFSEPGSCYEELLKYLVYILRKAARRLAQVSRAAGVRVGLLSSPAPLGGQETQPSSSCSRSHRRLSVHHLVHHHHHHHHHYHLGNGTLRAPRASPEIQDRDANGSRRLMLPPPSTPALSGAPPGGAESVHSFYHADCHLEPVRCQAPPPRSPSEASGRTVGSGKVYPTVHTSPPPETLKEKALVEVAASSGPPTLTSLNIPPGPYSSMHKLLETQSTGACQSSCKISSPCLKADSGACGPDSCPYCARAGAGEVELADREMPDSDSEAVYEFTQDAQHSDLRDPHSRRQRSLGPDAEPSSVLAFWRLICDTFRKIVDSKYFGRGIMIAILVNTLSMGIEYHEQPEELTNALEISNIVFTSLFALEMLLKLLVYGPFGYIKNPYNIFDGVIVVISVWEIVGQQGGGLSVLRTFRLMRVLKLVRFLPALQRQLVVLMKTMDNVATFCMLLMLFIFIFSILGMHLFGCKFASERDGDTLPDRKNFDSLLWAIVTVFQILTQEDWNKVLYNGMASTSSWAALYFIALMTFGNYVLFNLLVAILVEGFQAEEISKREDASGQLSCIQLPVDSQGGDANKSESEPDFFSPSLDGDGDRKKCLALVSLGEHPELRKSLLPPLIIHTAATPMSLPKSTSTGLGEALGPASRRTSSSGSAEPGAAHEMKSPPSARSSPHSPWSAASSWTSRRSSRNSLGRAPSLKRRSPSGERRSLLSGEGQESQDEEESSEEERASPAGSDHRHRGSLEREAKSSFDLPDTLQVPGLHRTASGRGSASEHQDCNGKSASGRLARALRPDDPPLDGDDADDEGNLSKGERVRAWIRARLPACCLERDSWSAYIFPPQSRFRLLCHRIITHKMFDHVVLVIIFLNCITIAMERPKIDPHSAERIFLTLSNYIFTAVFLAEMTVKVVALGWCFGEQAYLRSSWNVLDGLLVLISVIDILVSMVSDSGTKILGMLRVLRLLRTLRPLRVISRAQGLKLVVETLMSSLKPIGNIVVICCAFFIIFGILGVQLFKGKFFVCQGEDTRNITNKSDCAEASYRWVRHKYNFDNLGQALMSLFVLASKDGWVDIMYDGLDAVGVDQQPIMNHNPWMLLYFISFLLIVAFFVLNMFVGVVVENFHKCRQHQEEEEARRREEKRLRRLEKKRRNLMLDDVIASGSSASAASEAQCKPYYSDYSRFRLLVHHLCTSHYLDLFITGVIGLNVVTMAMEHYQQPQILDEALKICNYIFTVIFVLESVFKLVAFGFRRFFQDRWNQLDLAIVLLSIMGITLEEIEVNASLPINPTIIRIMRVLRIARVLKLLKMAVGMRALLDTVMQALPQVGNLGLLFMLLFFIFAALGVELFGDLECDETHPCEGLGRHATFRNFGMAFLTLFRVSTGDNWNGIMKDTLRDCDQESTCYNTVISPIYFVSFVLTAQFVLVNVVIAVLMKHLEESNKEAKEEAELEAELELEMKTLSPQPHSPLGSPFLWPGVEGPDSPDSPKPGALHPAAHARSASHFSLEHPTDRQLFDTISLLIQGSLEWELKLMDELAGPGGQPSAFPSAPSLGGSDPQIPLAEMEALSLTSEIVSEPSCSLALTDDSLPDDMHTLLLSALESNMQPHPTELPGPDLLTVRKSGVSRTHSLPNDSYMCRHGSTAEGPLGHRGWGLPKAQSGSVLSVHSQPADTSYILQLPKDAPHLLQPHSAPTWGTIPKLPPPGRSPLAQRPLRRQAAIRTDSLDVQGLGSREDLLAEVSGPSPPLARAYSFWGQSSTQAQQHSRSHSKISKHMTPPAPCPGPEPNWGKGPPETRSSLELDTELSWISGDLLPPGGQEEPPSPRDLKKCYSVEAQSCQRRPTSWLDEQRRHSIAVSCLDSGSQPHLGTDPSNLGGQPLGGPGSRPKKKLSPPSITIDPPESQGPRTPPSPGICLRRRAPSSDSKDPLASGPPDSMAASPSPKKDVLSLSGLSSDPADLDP
Compound,inhibition [1],pIC50 [2],inhibition [3],pIC50 [4],also measured
NC(=O)c1cccc(NCc2ccc(-c3cccc(C(F)(F)F)c3)o2)c1,39.3%,,,,
COc1cc(CNCc2ccc(-c3ccncc3)cc2)cc(OC)c1OC,21.9%,,,,
COc1ccc(-c2ccc(CNc3cccc(C(N)=O)c3)o2)cc1Cl,41.6%,,,,
NC(=O)c1cccc(NCc2ccc(-c3ccc(Cl)cc3)o2)c1,14.5%,,,,
COc1cc(CNCc2ccc(Oc3ccc(C#N)cc3)cc2)cc(OC)c1OC,60.4%,5.19,54.9%,5.03,
COc1cc(CNCc2c[nH]c3ccc(Cl)cc23)cc(OC)c1OC,64.2%,5.28,75.2%,5.02,
N#Cc1ccc(Oc2ccc(-c3ccc(CNc4cccc(C(N)=O)c4)o3)cc2)cc1,53%,5.13,21.6%,,Activity [5]: inactive; Activity [6]: inactive; Activity [7]: inactive; Activity [8]: inactive; Activity [9]: inactive; Activity [10]: inactive
NC(=O)c1cccc(NCc2c[nH]c3ccc(Cl)cc23)c1,39.9%,,,,
NC(=O)c1cccc(NCc2ccc(N3CCOCC3)cc2)c1,4.1%,,,,
COc1ccc(-c2ccc(CNCc3cc(OC)c(OC)c(OC)c3)o2)cc1Cl,77.6%,5.62,70.6%,5.23,
COc1cc(CNCc2ccc(-c3cncnc3)cc2)cc(OC)c1OC,38.3%,,,,
COc1cc(CNCc2ccc(-c3cccc(C(F)(F)F)c3)o2)cc(OC)c1OC,86.6%,5.60,81.6%,5.17,
COc1cc(CNCc2ccc(-c3ccc(Cl)cc3)o2)cc(OC)c1OC,91.3%,5.72,80.2%,5.37,Activity [5]: 9.16 g; Activity [6]: 11.1 g; Activity [7]: 2.6 g; Time [8]: 8.3 s; Time [9]: 8.9 s; Time [10]: 5.8 s; Activity [11]: Non-toxic
NC(=O)c1cccc(NCc2cc(-c3ccc(Cl)cc3)on2)c1,25.2%,,,,
COc1cc(CNCc2ccc(N3CCOCC3)cc2)cc(OC)c1OC,9.8%,,,,

# From ChEMBL document CHEMBL3612045, “3-Benzamides and 3,4,5-trimethoxyphenyl amines as calcium channel blockers” (Bioorg Med Chem, 2015)
